What was measured:
Format in all cases: in vivo
[1] = tested on: Magnaporthe grisea (Pyricularia oryzae); assay: whole plant or invertebrate; conditions: 144 h, read-out: inhibit fungal infestation
[2] = tested on: Alternaria solani; assay: Alternaria solani/Tomato/Preventive (action against Alternaria on tomato); conditions: 96 h, preventive spray, tomato plants cv. Roter Gnom, assessed 4 days after inoculation, read-out: inhibit fungal infestation
Description: (§1) Alternaria solani/Tomato/Preventive (Action Against Alternaria on Tomato) 4 weeks old tomato plants cv. Roter Gnom are treated with the formulated test compound in a spray chamber. Two days after application tomato plants are inoculated by spraying a spore suspension on the test plants. After an incubation period of 4 days at 22° C./18° C. and 95% r. h. in a greenhouse the disease incidence is assessed.

[3] = tested on: Pyrenophora teres (Helminthosporium teres); assay: Pyrenophora teres (Helminthosporium teres)/Barley/Preventive (action against net blotch on barley); conditions: 96 h, preventive spray, barley plants cv. Regina, assessed 4 days after inoculation, read-out: inhibit fungal infestation
Description: Pyrenophora teres (Helminthosporium teres)/Barley/Preventive (Action Against Net Blotch on Barley) 1-week-old barley plants cv. Regina are treated with the formulated test compound in a spray chamber. Two days after application barley plants are inoculated by spraying a spore suspension (2.6×10^4 conidia/ml) on the test plants. After an incubation period of 4 days at 20° C. and 95% r. h. the disease incidence is assessed.

[4] = tested on: Botrytis cinerea; assay: Botrytis cinerea/Tomato/Preventive (action against Botrytis on tomato); conditions: 72 h, preventive spray, tomato plants cv. Roter Gnom, assessed 3 days after inoculation, read-out: inhibit fungal infestation
Description: as §1, with “Botrytis cinerea/Tomato/Preventive (Action” for “Alternaria solani/Tomato/Preventive (Action”, “Against Botrytis” for “Against Alternaria”, “of 3” for “of 4”, “at 20°” for “at 22° C./18°”

[5] = tested on: Septoria tritici; assay: Septoria tritici/Wheat/Preventive (action against Septoria leaf spot on wheat); conditions: Zymoseptoria tritici, preventive spray, wheat plants cv. Riband, assessed 16-18 days after inoculation, read-out: inhibit fungal infestation
Description: Septoria tritici/Wheat/Preventive (Action Against Septoria Leaf Spot on Wheat) 2 weeks old wheat plants cv. Riband are treated with the formulated test compound in a spray chamber. One day after application wheat plants are inoculated by spraying a spore suspension (10^6 conidia/ml) on the test plants. After an incubation period of 1 day at 22° C./21° C. and 95% r. h. plants are kept at 22° C./21° C. and 70% r.h. in a greenhouse. The disease incidence is assessed 16-18 days after inoculation.

[6] = tested on: Uncinula necator; assay: Uncinula necator/Grape/Preventive (action against powdery mildew on grape); conditions: Erysiphe necator, 168 h, preventive spray, grape seedlings cv. Gutedel, assessed 7 days after inoculation, read-out: inhibit fungal infestation
Description: Uncinula necator/Grape/Preventive (Action Against Powdery Mildew on Grape) 5 weeks old grape seedlings cv. Gutedel are treated with the formulated test compound in a spray chamber. One day after application grape plants are inoculated by shaking plants infected with grape powdery mildew above the test plants. After an incubation period of 7 days at 24° C./22° C. and 70% r. h. under a light regime of 14/10 h (light/dark) the disease incidence is assessed.

[7] = tested on: Puccinia recondita; assay: Puccinia recondita/Wheat/Preventive (action against brown rust on wheat); conditions: 264 h, preventive spray, wheat plants cv. Arina, assessed 11 days after inoculation, read-out: inhibit fungal infestation
Description: Puccinia recondita/Wheat/Preventive (Action Against Brown Rust on Wheat) 1 week old wheat plants cv. Arina are treated with the formulated test compound in a spray chamber. One day after application wheat plants are inoculated by spraying a spore suspension ([…] uredospores/ml) on the test plants. After an incubation period of 1 day at 20° C. and 95% r. h. plants are kept for 10 days 20° C./18° C. (day/night) and 60% r.h. in a greenhouse. The disease incidence is assessed 11 days after inoculation.

Measured: inhibition at 200 ppm

Fc1cc(F)c(-c2c(Cl)nc(Cl)n2-c2ccc(Cl)nc2)c(F)c1 [I.j.209, 2-Chloro-5-[2,4-dichloro-5-(2,4,6-trifluoro-phenyl)-imidazol-1-yl]-pyridine]
not listed: [6] | [7]
≥ 80%: all other assays above

Cc1nc(Cl)c(-c2c(F)cc(F)cc2F)n1-c1ccc(Cl)nc1 [I.j.210, 2-Chloro-5-[4-chloro-2-methyl-5-(2,4,6-trifluoro-phenyl)-imidazol-1-yl]-pyridine]
≥ 80%: all assays above

Cc1ccc(-n2c(C)nc(Cl)c2-c2c(F)cc(F)cc2F)cn1 [I.j.225, 5-[4-Chloro-2-methyl-5-(2,4,6-trifluoro-phenyl)-imidazol-1-yl]-2-methyl-pyridine]
≥ 80%: [1] | [2] | [6] | [5]

Fc1cc(F)c(-c2c(Cl)nc(Cl)n2-c2cnc3ccccc3c2)c(F)c1 [I.j.269, 3-[2,4-dichloro-5-(2,4,6-trifluoro-phenyl)-imidazol-1-yl]-quinoline]
≥ 80%: [2] | [3] | [6] | [5]

Cc1nc(Cl)c(-c2c(F)cc(F)cc2F)n1-c1cnc2ccccc2c1 [I.j.270, 3-[4-chloro-2-methyl-5-(2,4,6-trifluoro-phenyl)-imidazol-1-yl]-quinoline]
≥ 80%: all assays above

COc1cc(F)c(-c2c(Cl)nc(C)n2-c2ccc(Cl)nc2)c(F)c1 [I.m.210, 2-Chloro-5-[4-chloro-5-(2,6-difluoro-4-methoxy-phenyl)-2-methyl-imidazol-1-yl]-pyridine]
≥ 80%: all assays above

COc1cc(F)c(-c2c(Cl)nc(C)n2-c2ccc(OC)nc2)c(F)c1 [I.m.220, 5-[4-Chloro-5-(2,6-difluoro-4-methoxy-phenyl)-2-methyl-imidazol-1-yl]-2-methoxy-pyridine]
≥ 80%: all assays above

COc1cc(F)c(-c2c(Cl)nc(C)n2-c2ccc(C)nc2)c(F)c1 [I.m.225, 5-[4-Chloro-5-(2,6-difluoro-4-methoxy-phenyl)-2-methyl-imidazol-1-yl]-2-methyl-pyridine]
≥ 80%: all assays above
